# Earlier results, collected in patent US20130040915A1, “PHARMACEUTICAL COMPOSITION” (CAPITAL, BUSINESS Y GESTION DE FINANZAS, S.L., priority 2010, published 2013).
# Assays:
# [1] = high concentrations, of the order of 4.8 mg/ml
# [2] = test system: tumor-induced hypercalcaemia; details: subcutaneous infusion
# [3] = test system: adipose tissue cell membranes; details: concentrations of 1%
# [4] = not given; remark: listed apart in the source
compound,measurement,setting,value
O=C([O-])CC(O)(CC(=O)[O-])C(=O)[O-].[Na+].[Na+].[Na+] [sodium citrate],pain after a subcutaneous injection compared with a solution with histidine,[1],more pain
O=P(O)(O)C(Cl)(Cl)P(=O)(O)O [clodronate],tolerability,"[2]; 1500 mg in 50 to 1000 ml, 2 to 24 hours",well tolerated
same,control of tumor-induced hypercalcaemia (lowering the level of calcium),"[2]; 149 patients, 254 infusions",effective
sodium deoxycholate,pKa,,6.58
same,solubility,pH 7.4 of the skin,sparingly soluble
same,effect on adipose tissue cell membranes,[3],non-specific rupture of adipose tissue cell membranes
C[C@H](CCC(=O)NCCS(=O)(=O)O)[C@H]1CC[C@H]2[C@@H]3[C@H](O)C[C@@H]4C[C@H](O)CC[C@]4(C)[C@H]3C[C@H](O)[C@]12C [sodium taurocholate],pKa,,1.4
O=P(O)(O)C(O)(Cn1ccnc1)P(=O)(O)O [Zoledronic acid],chemical stability in autoclave sterilization condition,[4],chemically very stable
